Reference: patent publication US10562909B2, “Fused quadracyclic compounds, compositions and uses thereof” (Tabomedex Biosciences, LLC, priority 2016, dated 2020)

The molecules below were run against MAPKAPK2 (Homo sapiens, UniProt P49137) (assay: MK2 Enzymatic Assay). Details: 0.5 nM MAPKAPK2, 3 μM ATP, 2 μM Ser/Thr4 peptide, 23° C., values given as concentration bins.
Format: biochemical
Method in brief: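 MAPKAPK2 (2× stock 1 nM) and peptide substrate (2× 4 μM) were preincubated 20 min, then started with ATP (2× stock 6 μM) for 120 min. After 120 min development, coumarin/fluorescein emission ratio gave percent phosphorylation against 0% and 100% phosphopeptide controls.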

Sequence of MAPKAPK2 (P49137 whole entry, species assumed): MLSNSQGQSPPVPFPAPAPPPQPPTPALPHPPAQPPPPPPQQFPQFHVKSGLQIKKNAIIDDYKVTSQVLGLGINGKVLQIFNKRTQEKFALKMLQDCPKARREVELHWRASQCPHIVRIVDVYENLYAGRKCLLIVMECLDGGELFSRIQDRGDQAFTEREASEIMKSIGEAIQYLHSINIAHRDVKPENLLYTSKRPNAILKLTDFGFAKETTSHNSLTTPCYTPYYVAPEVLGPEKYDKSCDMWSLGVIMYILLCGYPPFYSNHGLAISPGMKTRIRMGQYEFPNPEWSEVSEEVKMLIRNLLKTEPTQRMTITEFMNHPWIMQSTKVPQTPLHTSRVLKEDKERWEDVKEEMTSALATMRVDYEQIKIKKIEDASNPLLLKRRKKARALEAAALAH

Row | IC50 | SMILES
1 | < 50 nM | CCNC[C@@H]1CCN(c2ccc3c(c2)Cn2cc(-c4ccc(F)cc4)cc2-c2nccn2-3)C1 [Compound 464, (S)—N-((1-(12-(4-fluorophenyl)-9H-benzo[e]imidazo[2,1-c]pyrrolo[1,2-a][1,4]diazepin-7-yl)pyrrolidin-3-yl)methyl)ethanamine]
2 | < 50 nM | CNC[C@H]1CN(c2ccc3c(c2)Cn2cc(-c4ccc(F)cc4)cc2-c2nccn2-3)C[C@H]1F [Compound 466, 1-((3S,4S)-4-fluoro-1-(12-(4-fluorophenyl)-9H-benzo[e]imidazo[2,1-c]pyrrolo[1,2-a][1,4]diazepin-7-yl)pyrrolidin-3-yl)-N-methylmethanamine]
3 | < 50 nM | O[C@H]1CN(c2ccc3c(c2)Cn2cc(-c4ccc(F)cc4)cc2-c2nccn2-3)C[C@@H]1CN1CCCC1 [Compound 470, (3R,4S)-1-(12-(4-fluorophenyl)-9H-benzo[e]imidazo[2,1-c]pyrrolo[1,2-a][1,4]diazepin-7-yl)-4-(pyrrolidin-1-ylmethyl)pyrrolidin-3-ol]
4 | < 50 nM | O[C@@H]1CN(c2ccc3c(c2)Cn2cc(-c4ccc(F)cc4)cc2-c2nccn2-3)C[C@H]1CN1CCCC1 [Compound 471, (3S,4R)-1-(12-(4-fluorophenyl)-9H-benzo[e]imidazo[2,1-c]pyrrolo[1,2-a][1,4]diazepin-7-yl)-4-(pyrrolidin-1-ylmethyl)pyrrolidin-3-ol]
5 | < 50 nM | O[C@H]1CN(c2ccc3c(c2)Cn2cc(-c4ccc(F)cc4)cc2-c2nccn2-3)C[C@@H]1CNC1CC1 [Compound 473, (3R,4S)-4-((cyclopropylamino)methyl)-1-(12-(4-fluorophenyl)-9H-benzo[e]imidazo[2,1-c]pyrrolo[1,2-a][1,4]diazepin-7-yl)pyrrolidin-3-ol]
6 | < 50 nM | CNC[C@@H]1CN(c2ccc3c(c2)Cn2cc(-c4ccc(F)cc4)cc2-c2nccn2-3)C[C@@H]1F [Compound 474, 1-((3R,4R)-4-fluoro-1-(12-(4-fluorophenyl)-9H-benzo[e]imidazo[2,1-c]pyrrolo[1,2-a][1,4]diazepin-7-yl)pyrrolidin-3-yl)-N-methylmethanamine]
7 | < 50 nM | CN(C)C[C@@H]1CN(c2ccc3c(c2)Cn2cc(-c4ccc(F)cc4)cc2-c2nccn2-3)C[C@@H]1F [Compound 475, 1-((3R,4R)-4-fluoro-1-(12-(4-fluorophenyl)-9H-benzo[e]imidazo[2,1-c]pyrrolo[1,2-a][1,4]diazepin-7-yl)pyrrolidin-3-yl)-N,N-dimethylmethanamine]

More lines, now with the values behind:

Row | SMILES | IC50
8 | C[C@H](CO)NC[C@H]1CCN(c2ccc3c(n2)Cn2cc(-c4ccc(F)cc4)cc2-c2nccn2-3)C1 [Compound 434, (R)-2-((((R)-1-(12-(4-fluorophenyl)-9H-imidazo[2,1-c]pyrido[3,2-e]pyrrolo[1,2-a][1,4]diazepin-7-yl)pyrrolidin-3-yl)methyl)amino)propan-1-ol] | < 50 nM
9 | CN(C)C[C@H]1CN(c2ccc3c(n2)Cn2cc(-c4ccc(F)cc4)cc2-c2nccn2-3)C[C@@H]1O [Compound 435, (3R,4S)-4-((dimethylamino)methyl)-1-(12-(4-fluorophenyl)-9H-imidazo[2,1-c]pyrido[3,2-e]pyrrolo[1,2-a][1,4]diazepin-7-yl)pyrrolidin-3-ol] | < 50 nM
10 | CN(C)C[C@@H]1CN(c2ccc3c(n2)Cn2cc(-c4ccc(F)cc4)cc2-c2nccn2-3)C[C@H]1O [Compound 436, (3S,4R)-4-((dimethylamino)methyl)-1-(12-(4-fluorophenyl)-9H-imidazo[2,1-c]pyrido[3,2-e]pyrrolo[1,2-a][1,4]diazepin-7-yl)pyrrolidin-3-ol] | < 50 nM
11 | C[C@@H](CO)NC[C@H]1CCN(c2ccc3c(n2)Cn2cc(-c4ccc(F)cc4)cc2-c2nccn2-3)C1 [Compound 437, (S)-2-((((R)-1-(12-(4-fluorophenyl)-9H-imidazo[2,1-c]pyrido[3,2-e]pyrrolo[1,2-a][1,4]diazepin-7-yl)pyrrolidin-3-yl)methyl)amino)propan-1-ol] | < 50 nM
12 | Fc1ccc(-c2cc3n(c2)Cc2nc(N4CCC5(CNC5)C4)ccc2-n2ccnc2-3)cc1 [Compound 440, 12-(4-fluorophenyl)-7-(2,6-diazaspiro[3.4]octan-6-yl)-9H-imidazo[2,1-c]pyrido[3,2-e] pyrrolo[1,2-a][1,4]diazepine] | < 50 nM
13 | CN1CC2(CCN(c3ccc4c(n3)Cn3cc(-c5ccc(F)cc5)cc3-c3nccn3-4)C2)C1 [Compound 441, 12-(4-fluorophenyl)-7-(2-methyl-2,6-diazaspiro[3.4]octan-6-yl)-9H-imidazo[2,1-c]pyrido[3,2-e]pyrrolo[1,2-a][1,4]diazepine] | < 50 nM
14 | C[C@H](CO)NC[C@H]1CCN(c2cc3c(cn2)-n2ccnc2-c2cc(-c4ccc(F)cc4)cn2C3)C1 [Compound 442, (R)-2-((((R)-1-(12-(4-fluorophenyl)-9H-imidazo[2,1-c]pyrido[3,4-e]pyrrolo[1,2-a][1,4]diazepin-7-yl)pyrrolidin-3-yl)methyl)amino)propan-1-ol] | 100 to 200 nM
15 | CN(C)C[C@@H]1CCN(c2cc3c(cn2)-n2cnnc2-c2cc(-c4ccc(F)cc4)cn2C3)C1 [Compound 443, (S)-1-(1-(12-(4-fluorophenyl)-9H-pyrido[3,4-e]pyrrolo[1,2-a][1,2,4]triazolo[3,4-c][1,4]diazepin-7-yl)pyrrolidin-3-yl)-N,N-dimethylmethanamine] | 100 to 200 nM
16 | CN(C)[C@H]1CCN(c2ccc3c(c2)Cn2cc(-c4ccc(F)cc4F)cc2-c2nncn2-3)C1 [Compound 449, (S)-1-(12-(2,4-difluorophenyl)-9H-benzo[e]pyrrolo[1,2-a][1,2,4]triazolo[3,4-c][1,4]diazepin-7-yl)-N,N-dimethylpyrrolidin-3-amine] | 100 to 200 nM
17 | CN[C@H]1CCN(c2ccc3c(c2)Cn2cc(-c4ccc(F)cc4F)cc2-c2ncnn2-3)C1 [Compound 451, (S)-1-(12-(2,4-difluorophenyl)-9H-benzo[e]pyrrolo[1,2-a][1,2,4]triazolo[5,1-c][1,4]diazepin-7-yl)-N-methylpyrrolidin-3-amine] | 100 to 200 nM
18 | OC1CCN(C[C@H]2CCN(c3ccc4c(c3)Cn3cc(-c5ccccc5)cc3-c3nncn3-4)C2)CC1 [Compound 459, (R)-1-((1-(12-phenyl-9H-benzo[e]pyrrolo[1,2-a][1,2,4]triazolo[3,4-c][1,4]diazepin-7-yl)pyrrolidin-3-yl)methyl)piperidin-4-ol] | 100 to 200 nM
19 | c1ccc(-c2cc3n(c2)Cc2cc(N4CCC5(CNC5)C4)ccc2-n2ccnc2-3)cc1 [Compound 462, 12-phenyl-7-(2,6-diazaspiro[3.4]octan-6-yl)-9H-benzo[e]imidazo[2,1-c]pyrrolo[1,2-a][1,4]diazepine] | < 50 nM
20 | Fc1ccc(-c2cc3n(c2)Cc2cc(N4CC[C@@H](CNCC(F)F)C4)ccc2-n2ccnc2-3)cc1 [Compound 465, (S)-2,2-difluoro-N-((1-(12-(4-fluorophenyl)-9H-benzo[e]imidazo[2,1-c]pyrrolo[1,2-a][1,4]diazepin-7-yl)pyrrolidin-3-yl)methyl)ethanamine] | 200 to 1000 nM
21 | CN(C)C[C@H]1CN(c2ccc3c(c2)Cn2cc(-c4ccc(F)cc4)cc2-c2nccn2-3)C[C@H]1F [Compound 467, 1-((3S,4S)-4-fluoro-1-(12-(4-fluorophenyl)-9H-benzo[e]imidazo[2,1-c]pyrrolo[1,2-a][1,4]diazepin-7-yl)pyrrolidin-3-yl)-N,N-dimethylmethanamine] | < 50 nM
